From publication PMC3020594 (International journal of biological macromolecules, 2010)
Like-named read-outs stand apart in the source and are kept apart here.

Target: human cytidine deaminase (CDA) (Homo sapiens, UniProt P32320, Y33G)
Assay: biochemical
Format: biochemical

human cytidine deaminase (CDA), sequence (P32320 whole entry Y33G): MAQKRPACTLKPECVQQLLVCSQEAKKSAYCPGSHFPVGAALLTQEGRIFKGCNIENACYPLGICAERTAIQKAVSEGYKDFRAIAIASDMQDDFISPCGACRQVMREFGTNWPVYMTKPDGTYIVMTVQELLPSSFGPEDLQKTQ

Compound | Ki (read-out: Y33G) [µM] | Ki [µM]
6-[3,5(cytidyl)acryloylamino] hexanoic acid [CV6] | 3.4 | 
O=c1ncc(F)cn1[C@@H]1O[C@H](CO)[C@@H](O)[C@H]1O [5-FZEB, 5-Fluorozebularine] |  | 0.2
